In PubChem BioAssay (NCI) one finds TGI data, which are given here for 4 compounds.

SMILES strings stand for the structures.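 Compound exposure: 48 hours, 5 concentrations, 96-well plates. At the TGI there is no net growth.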

The first experiment has as its system XF 498 CNS. The experiment is described as follows: NCI tumour cell line growth inhibition, 48 h.
For `O=C(Nc1ccc(Cl)cc1)c1cc2cc(N=Nc3ccccc3Cl)ccc2oc1=O`, the TGI is 67.1 µM.

The test system of a further experiment is OVCAR-5 ovarian. The experiment is described as follows: NCI tumour cell line growth inhibition, 48 h.
Compound `O=C(O)C(SC(=S)c1ccc(C(=S)SC(C(=O)O)c2ccccc2)cc1)c1ccccc1` (centres undefined) registered a TGI of more than 100 µM.
The compound `C/C(=N\NS(=O)(=O)c1ccc(C)cc1)C(CN1CCCCC1)C(c1ccccc1)c1c(O)c2ccccc2oc1=O` (centres undefined) yielded a TGI of more than 100 µM.
Turning to `OC(c1ccccc1)(c1ccccc1)c1ccncc1`, the TGI is more than 100 µM.
On the same count and under the same terms, for `O=C(Nc1ccc(Cl)cc1)c1cc2cc(N=Nc3ccccc3Cl)ccc2oc1=O` the value was 91.3 µM.

The subject of the next experiment is SNB-75 CNS. The experiment is described as follows: NCI tumour cell line growth inhibition, 48 h.
As to `O=C(O)C(SC(=S)c1ccc(C(=S)SC(C(=O)O)c2ccccc2)cc1)c1ccccc1` (centres undefined), the TGI is more than 100 µM.
Still for that read-out and setting: then `C/C(=N\NS(=O)(=O)c1ccc(C)cc1)C(CN1CCCCC1)C(c1ccccc1)c1c(O)c2ccccc2oc1=O` (centres undefined), with more than 100 µM; and `OC(c1ccccc1)(c1ccccc1)c1ccncc1`, with more than 100 µM; and `O=C(Nc1ccc(Cl)cc1)c1cc2cc(N=Nc3ccccc3Cl)ccc2oc1=O`, with 72.5 µM.

For a further experiment, the system named is SN12C renal. The experiment is described as follows: NCI tumour cell line growth inhibition, 48 h.
Compound `O=C(O)C(SC(=S)c1ccc(C(=S)SC(C(=O)O)c2ccccc2)cc1)c1ccccc1` (centres undefined) returned a TGI of more than 100 µM.
In the case of `C/C(=N\NS(=O)(=O)c1ccc(C)cc1)C(CN1CCCCC1)C(c1ccccc1)c1c(O)c2ccccc2oc1=O` (centres undefined), the TGI was more than 100 µM.
`OC(c1ccccc1)(c1ccccc1)c1ccncc1` registered a TGI of more than 100 µM.
`O=C(Nc1ccc(Cl)cc1)c1cc2cc(N=Nc3ccccc3Cl)ccc2oc1=O` showed a TGI of 44.7 µM.

For a further experiment, the system named is SK-MEL-2 melanoma. The experiment is described as follows: NCI tumour cell line growth inhibition, 48 h.
In turn, `O=C(O)C(SC(=S)c1ccc(C(=S)SC(C(=O)O)c2ccccc2)cc1)c1ccccc1` (centres undefined) came in with a TGI of more than 100 µM.
On to `C/C(=N\NS(=O)(=O)c1ccc(C)cc1)C(CN1CCCCC1)C(c1ccccc1)c1c(O)c2ccccc2oc1=O` (centres undefined), for which the TGI is more than 100 µM.
Turning to `OC(c1ccccc1)(c1ccccc1)c1ccncc1`, the TGI was more than 100 µM.
The same measure, in the same setting: for `O=C(Nc1ccc(Cl)cc1)c1cc2cc(N=Nc3ccccc3Cl)ccc2oc1=O` the value was 47 µM.

Another experiment concerns KM12 colon. The experiment is described as follows: NCI tumour cell line growth inhibition, 48 h.
`O=C(O)C(SC(=S)c1ccc(C(=S)SC(C(=O)O)c2ccccc2)cc1)c1ccccc1` (centres undefined) displayed a TGI of more than 100 µM.
Take `C/C(=N\NS(=O)(=O)c1ccc(C)cc1)C(CN1CCCCC1)C(c1ccccc1)c1c(O)c2ccccc2oc1=O` (centres undefined): the TGI is more than 100 µM.
Same read-out and setting: then `OC(c1ccccc1)(c1ccccc1)c1ccncc1`, with more than 100 µM.

The test system of another experiment is HCT-116 colon. The experiment is described as follows: NCI tumour cell line growth inhibition, 48 h.
Take `O=C(O)C(SC(=S)c1ccc(C(=S)SC(C(=O)O)c2ccccc2)cc1)c1ccccc1` (centres undefined): the TGI was more than 100 µM.
`C/C(=N\NS(=O)(=O)c1ccc(C)cc1)C(CN1CCCCC1)C(c1ccccc1)c1c(O)c2ccccc2oc1=O` (centres undefined) yielded a TGI of more than 100 µM.
Consider `OC(c1ccccc1)(c1ccccc1)c1ccncc1`, for which the TGI is more than 100 µM.
Same read-out and setting: for `O=C(Nc1ccc(Cl)cc1)c1cc2cc(N=Nc3ccccc3Cl)ccc2oc1=O` the value was 23.3 µM.

Another experiment deals with HOP-18 NSCLC. The experiment is described as follows: NCI tumour cell line growth inhibition, 48 h.
Take `C/C(=N\NS(=O)(=O)c1ccc(C)cc1)C(CN1CCCCC1)C(c1ccccc1)c1c(O)c2ccccc2oc1=O` (centres undefined): the TGI was more than 100 µM.
The same measure, in the same setting: then `OC(c1ccccc1)(c1ccccc1)c1ccncc1`, with more than 100 µM.
Same read-out and setting: then `O=C(Nc1ccc(Cl)cc1)c1cc2cc(N=Nc3ccccc3Cl)ccc2oc1=O`, with 96.9 µM.

In the next experiment the test system is CCRF-CEM leukemia. The experiment is described as follows: NCI tumour cell line growth inhibition, 48 h.
`O=C(O)C(SC(=S)c1ccc(C(=S)SC(C(=O)O)c2ccccc2)cc1)c1ccccc1` (centres undefined) had a TGI of more than 100 µM.
Compound `C/C(=N\NS(=O)(=O)c1ccc(C)cc1)C(CN1CCCCC1)C(c1ccccc1)c1c(O)c2ccccc2oc1=O` (centres undefined) had a TGI of more than 100 µM.
The same measure, in the same setting: for `OC(c1ccccc1)(c1ccccc1)c1ccncc1` the value was more than 100 µM; for `O=C(Nc1ccc(Cl)cc1)c1cc2cc(N=Nc3ccccc3Cl)ccc2oc1=O`, 5.38 µM.

For another experiment, the system named is OVCAR-3 ovarian. The experiment is described as follows: NCI tumour cell line growth inhibition, 48 h.
`O=C(O)C(SC(=S)c1ccc(C(=S)SC(C(=O)O)c2ccccc2)cc1)c1ccccc1` (centres undefined) came in with a TGI of more than 100 µM.
In turn, `C/C(=N\NS(=O)(=O)c1ccc(C)cc1)C(CN1CCCCC1)C(c1ccccc1)c1c(O)c2ccccc2oc1=O` (centres undefined) registered a TGI of more than 100 µM.
On the same count and under the same terms, for `OC(c1ccccc1)(c1ccccc1)c1ccncc1` the value was more than 100 µM; for `O=C(Nc1ccc(Cl)cc1)c1cc2cc(N=Nc3ccccc3Cl)ccc2oc1=O`, 75.6 µM.

A further experiment relates to M14 melanoma. The experiment is described as follows: NCI tumour cell line growth inhibition, 48 h.
Compound `O=C(O)C(SC(=S)c1ccc(C(=S)SC(C(=O)O)c2ccccc2)cc1)c1ccccc1` (centres undefined) returned a TGI of more than 100 µM.
`C/C(=N\NS(=O)(=O)c1ccc(C)cc1)C(CN1CCCCC1)C(c1ccccc1)c1c(O)c2ccccc2oc1=O` (centres undefined) returned a TGI of more than 100 µM.
`OC(c1ccccc1)(c1ccccc1)c1ccncc1` had a TGI of more than 100 µM.
Same read-out and setting: then `O=C(Nc1ccc(Cl)cc1)c1cc2cc(N=Nc3ccccc3Cl)ccc2oc1=O`, with 55 µM.

The test system of the next experiment is K-562 leukemia. The experiment is described as follows: NCI tumour cell line growth inhibition, 48 h.
`O=C(O)C(SC(=S)c1ccc(C(=S)SC(C(=O)O)c2ccccc2)cc1)c1ccccc1` (centres undefined): the TGI was more than 100 µM.
`C/C(=N\NS(=O)(=O)c1ccc(C)cc1)C(CN1CCCCC1)C(c1ccccc1)c1c(O)c2ccccc2oc1=O` (centres undefined) yielded a TGI of more than 100 µM.
Take `OC(c1ccccc1)(c1ccccc1)c1ccncc1`: the TGI was more than 100 µM.
The compound `O=C(Nc1ccc(Cl)cc1)c1cc2cc(N=Nc3ccccc3Cl)ccc2oc1=O` gave a TGI of 23.6 µM.

The next experiment concerns OVCAR-4 ovarian. The experiment is described as follows: NCI tumour cell line growth inhibition, 48 h.
Take `C/C(=N\NS(=O)(=O)c1ccc(C)cc1)C(CN1CCCCC1)C(c1ccccc1)c1c(O)c2ccccc2oc1=O` (centres undefined): the TGI is more than 100 µM.
Still for that read-out and setting: for `OC(c1ccccc1)(c1ccccc1)c1ccncc1` the value was more than 100 µM.
In turn, `O=C(Nc1ccc(Cl)cc1)c1cc2cc(N=Nc3ccccc3Cl)ccc2oc1=O` registered a TGI of more than 100 µM.

The subject of a further experiment is SF-539 CNS. The experiment is described as follows: NCI tumour cell line growth inhibition, 48 h.
`O=C(O)C(SC(=S)c1ccc(C(=S)SC(C(=O)O)c2ccccc2)cc1)c1ccccc1` (centres undefined) returned a TGI of more than 100 µM.
`C/C(=N\NS(=O)(=O)c1ccc(C)cc1)C(CN1CCCCC1)C(c1ccccc1)c1c(O)c2ccccc2oc1=O` (centres undefined): the TGI is more than 100 µM.
In turn, `OC(c1ccccc1)(c1ccccc1)c1ccncc1` yielded a TGI of more than 100 µM.
Turning to `O=C(Nc1ccc(Cl)cc1)c1cc2cc(N=Nc3ccccc3Cl)ccc2oc1=O`, the TGI was 31.3 µM.

Another experiment concerns UO-31 renal. The experiment is described as follows: NCI tumour cell line growth inhibition, 48 h.
In the case of `O=C(O)C(SC(=S)c1ccc(C(=S)SC(C(=O)O)c2ccccc2)cc1)c1ccccc1` (centres undefined), the TGI was more than 100 µM.
The same measure, in the same setting: then `C/C(=N\NS(=O)(=O)c1ccc(C)cc1)C(CN1CCCCC1)C(c1ccccc1)c1c(O)c2ccccc2oc1=O` (centres undefined), with more than 100 µM; and `OC(c1ccccc1)(c1ccccc1)c1ccncc1`, with more than 100 µM; and `O=C(Nc1ccc(Cl)cc1)c1cc2cc(N=Nc3ccccc3Cl)ccc2oc1=O`, with 39.3 µM.
